Measured values from US20240336642A1 (The General Hospital Corporation, priority 2021, published 2024).

Experiments:
[1] = target: h12/15-LOX (Homo sapiens (Human), UniProt P16050); experiment: 12/15-LOX enzyme inhibition IC50 assay (Examples 1 and 2); format: biochemical; details: for Emax: h12/15-LOX, read-out: Max % inhibition
Method: Enzyme was then added to the cuvettes. […] The % inhibition for each test compound concentration were calculated as follows: […]

[2] = Aqueous solubility of exemplified compounds (Example 3); format: physicochemical; details: aqueous solubility
[3] = Metabolic stability of exemplified compounds (Example 4); format: in vitro ADME

h12/15-LOX, sequence (P16050 whole entry): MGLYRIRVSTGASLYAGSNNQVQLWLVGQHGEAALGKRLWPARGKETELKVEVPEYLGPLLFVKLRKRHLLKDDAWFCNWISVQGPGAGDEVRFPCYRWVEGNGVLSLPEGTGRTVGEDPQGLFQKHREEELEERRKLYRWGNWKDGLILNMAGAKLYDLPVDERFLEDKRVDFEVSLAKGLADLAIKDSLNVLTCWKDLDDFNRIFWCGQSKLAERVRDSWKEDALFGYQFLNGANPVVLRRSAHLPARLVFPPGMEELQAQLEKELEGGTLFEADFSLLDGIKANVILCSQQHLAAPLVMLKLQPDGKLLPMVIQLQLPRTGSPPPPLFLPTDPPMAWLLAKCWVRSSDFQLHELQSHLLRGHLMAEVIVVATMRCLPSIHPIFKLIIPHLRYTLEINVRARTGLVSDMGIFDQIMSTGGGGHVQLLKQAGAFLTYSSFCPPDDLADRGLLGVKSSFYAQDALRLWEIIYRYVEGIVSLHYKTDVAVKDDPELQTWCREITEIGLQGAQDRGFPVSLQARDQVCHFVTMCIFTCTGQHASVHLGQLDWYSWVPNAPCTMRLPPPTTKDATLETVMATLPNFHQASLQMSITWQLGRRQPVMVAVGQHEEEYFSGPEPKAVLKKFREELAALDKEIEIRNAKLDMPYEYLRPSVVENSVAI

Row | SMILES | IC50 [1] [nM] | Emax [1] [%] | also measured
1 | N#Cc1nc(-c2cc(Cl)cc(Cl)c2Cl)oc1NCCCO [Compound 16, 5-((3-Hydroxypropyl)amino)-2-(2,3,5-trichlorophenyl)oxazole-4-carbonitrile] | 4300 | 100 | Sol [2]: +++ (“+++” 20-50 μM); Extr (EH) ([3]; Human liver microsomes): * (“*” <50%); microsomal CLint ([3]; Human liver microsomes): < 20 µL/min/mg; Extr (EH) ([3]; Mouse liver microsomes): ** (“**” 50-100%); microsomal CLint ([3]; Mouse liver microsomes): 100 to 200 µL/min/mg; Extr (EH) ([3]; Rat liver microsomes): * (“*” <50%); microsomal CLint ([3]; Rat liver microsomes): 20 to 100 µL/min/mg
2 | N#Cc1nc(-c2cc(Cl)cc(Cl)c2Cl)oc1NCCCCO [Compound 17, 5-((4-Hydroxybutyl)amino)-2-(2,3,5-trichlorophenyl)oxazole-4-carbonitrile] | 1900 | 100 | Sol [2]: ++ (“++” 10-20 μM); Extr (EH) ([3]; Human liver microsomes): * (“*” <50%); microsomal CLint ([3]; Human liver microsomes): < 20 µL/min/mg; Extr (EH) ([3]; Mouse liver microsomes): * (“*” <50%); microsomal CLint ([3]; Mouse liver microsomes): < 20 µL/min/mg; Extr (EH) ([3]; Rat liver microsomes): * (“*” <50%); microsomal CLint ([3]; Rat liver microsomes): < 20 µL/min/mg
3 | N#Cc1nc(-c2cc(Cl)cc(Cl)c2Cl)oc1NCCCCCO [Compound 22, 5-((5-Hydroxypentyl)amino)-2-(2,3,5-trichlorophenyl)oxazole-4-carbonitrile] | 510 | 82 | Sol [2]: + (“+” < 10 μM); Extr (EH) ([3]; Human liver microsomes): ** (“**” 50-100%); microsomal CLint ([3]; Human liver microsomes): 20 to 100 µL/min/mg; Extr (EH) ([3]; Mouse liver microsomes): * (“*” <50%); microsomal CLint ([3]; Mouse liver microsomes): < 20 µL/min/mg; Extr (EH) ([3]; Rat liver microsomes): * (“*” <50%); microsomal CLint ([3]; Rat liver microsomes): 20 to 100 µL/min/mg
4 | N#Cc1nc(-c2cc(Cl)cc(Cl)c2Cl)oc1NCCOCCO [Compound 28, 5-((2-(2-Hydroxyethoxy)ethyl)amino)-2-(2,3,5-trichlorophenyl)oxazole-4-carbonitrile] | 1500 | 87 | Sol [2]: +++ (“+++” 20-50 μM); Extr (EH) ([3]; Human liver microsomes): ** (“**” 50-100%); microsomal CLint ([3]; Human liver microsomes): 20 to 100 µL/min/mg; Extr (EH) ([3]; Mouse liver microsomes): * (“*” <50%); microsomal CLint ([3]; Mouse liver microsomes): 20 to 100 µL/min/mg; Extr (EH) ([3]; Rat liver microsomes): * (“*” <50%); microsomal CLint ([3]; Rat liver microsomes): < 20 µL/min/mg
5 | COCCNc1oc(-c2cc(Cl)cc(Cl)c2Cl)nc1C#N [Compound 39, 5-((2-Methoxyethyl)amino)-2-(2,3,5-trichlorophenyl)oxazole-4-carbonitrile] | 370 | 100 | Sol [2]: + (“+” < 10 μM); Extr (EH) ([3]; Human liver microsomes): ** (“**” 50-100%); microsomal CLint ([3]; Human liver microsomes): 20 to 100 µL/min/mg; Extr (EH) ([3]; Mouse liver microsomes): ** (“**” 50-100%); microsomal CLint ([3]; Mouse liver microsomes): 100 to 200 µL/min/mg; Extr (EH) ([3]; Rat liver microsomes): ** (“**” 50-100%); microsomal CLint ([3]; Rat liver microsomes): 20 to 100 µL/min/mg
6 | N#Cc1nc(-c2cc(Cl)cc(Cl)c2Cl)oc1NCCOCCOc1cccnc1 [Compound 76, 5-((2-(2-(Pyridin-3-yloxy)ethoxy)ethyl)amino)-2-(2,3,5-trichlorophenyl)oxazole-4-carbonitrile] | 250 | 74 | 
7 | N#Cc1nc(-c2cc(Cl)cc(Cl)c2Cl)oc1NCCOCCN1CC(F)C1 [Compound 77, 5-((2-(2-(3-Fluoroazetidin-1-yl)ethoxy)ethyl)amino)-2-(2,3,5-trichlorophenyl)oxazole-4-carbonitrile] | > 20000 |  | 
8 | N#Cc1nc(-c2cc(Cl)cc(Cl)c2Cl)oc1NCCOCCN1CCC(F)C1 (centres unmarked) [Compound 78, 5-((2-(2-(3-Fluoropyrrolidin-1-yl)ethoxy)ethyl)amino)-2-(2,3,5-trichlorophenyl)oxazole-4-carbonitrile] | > 20000 | 49 | 
9 | N#Cc1nc(-c2cc(Cl)cc(Cl)c2Cl)oc1NCCOCCOc1cccnn1 [Compound 79, 5-((2-(2-(Pyridazin-3-yloxy)ethoxy)ethyl)amino)-2-(2,3,5-trichlorophenyl)oxazole-4-carbonitrile] | > 20000 | 17 | 
10 | N#Cc1nc(-c2cc(Cl)cc(Cl)c2Cl)oc1NCCOCCN1CCC(F)CC1 [Compound 80, 5-((2-(2-(4-Fluoropiperidin-1-yl)ethoxy)ethyl)amino)-2-(2,3,5-trichlorophenyl)oxazole-4-carbonitrile] | > 20000 |  | 
11 | N#Cc1nc(-c2cc(Cl)cc(Cl)c2Cl)oc1NCCOCCNc1ccccc1 [Compound 81, 5-((2-(2-(Phenylamino)ethoxy)ethyl)amino)-2-(2,3,5-trichlorophenyl)oxazole-4-carbonitrile] | 260 | 95 | 
12 | N#Cc1nc(-c2cc(Cl)cc(Cl)c2Cl)oc1NCCOCCOc1cncnc1 [Compound 82, 5-((2-(2-(Pyrimidin-5-yloxy)ethoxy)ethyl)amino)-2-(2,3,5-trichlorophenyl)oxazole-4-carbonitrile] | 360 | 82 | 
13 | Cc1cc(OCCOCCNc2oc(-c3cc(Cl)cc(Cl)c3Cl)nc2C#N)cc(C)n1 [Compound 83, 5-((2-(2-((2,6-Dimethylpyridin-4-yl)oxy)ethoxy)ethyl)amino)-2-(2,3,5-trichlorophenyl)oxazole-4-carbonitrile] | 180 | 61 | 
14 | N#Cc1nc(-c2cc(Cl)cc(Cl)c2Cl)oc1NCCOCCOc1ccncc1F [Compound 84, 5-((2-(2-((3-Fluoropyridin-4-yl)oxy)ethoxy)ethyl)amino)-2-(2,3,5-trichlorophenyl)oxazole-4-carbonitrile] | 490 | 68 | 
15 | COCCOc1ccc(COCC#CCNc2oc(-c3cc(Cl)cc(Cl)c3Cl)nc2C#N)cc1 [Compound 85] |  | 92 | 
16 | N#Cc1nc(-c2cc(Cl)cc(Cl)c2Cl)oc1NCC#CCOCc1ccc(CCN2CCOCC2)cc1 [Compound 86] |  | 100 | 
17 | N#Cc1nc(-c2cc(Cl)cc(Cl)c2Cl)oc1NCC#CCOCc1ccc(OCCN2CCOCC2)cc1 [Compound 87] |  | 94 | 

Row | SMILES | IC50 [1] [nM] | Emax [1] [%] | also measured
18 | N#Cc1nc(-c2cc(Cl)cc(Cl)c2Cl)oc1NCC#CCOCc1ccncc1 [Compound 88, 5-((4-(Pyridin-4-ylmethoxy)but-2-yn-1-yl)amino)-2-(2,3,5-trichlorophenyl)oxazole-4-carbonitrile] | 81 | 74 | 
19 | N#Cc1nc(-c2cc(Cl)cc(Cl)c2Cl)oc1NCC#CCOCc1ccc(C(=O)O)cc1 [Compound 89, 4-(((4-((4-Cyano-2-(2,3,5-trichlorophenyl)oxazol-5-yl)amino)but-2-yn-1-yl)oxy)methyl)benzoic acid] | 1300 | 100 | 
20 | CN(CCOCCNc1oc(-c2cc(Cl)cc(Cl)c2Cl)nc1C#N)c1ccncc1 [Compound 90, 5-((2-(2-(Methyl(pyridin-4-yl)amino)ethoxy)ethyl)amino)-2-(2,3,5-trichlorophenyl)oxazole-4-carbonitrile] | > 20000 |  | 
21 | N#Cc1nc(-c2cc(Cl)cc(Cl)c2Cl)oc1NCCOCCNc1ccncc1 [Compound 91, 5-((2-(2-(Pyridin-4-ylamino)ethoxy)ethyl)amino)-2-(2,3,5-trichlorophenyl)oxazole-4-carbonitrile] | > 20000 |  | 
22 | N#Cc1nc(-c2cc(Cl)cc(Cl)c2Cl)oc1NCCOCCN1CCC(F)(F)C1 [Compound 92, 5-((2-(2-(3,3-Difluoropyrrolidin-1-yl)ethoxy)ethyl)amino)-2-(2,3,5-trichlorophenyl)oxazole-4-carbonitrile] | 8800 | 86 | 
23 | N#Cc1nc(-c2cc(Cl)cc(Cl)c2Cl)oc1NCCOCCNCCF [Compound 93] |  | 98 | 
24 | N#Cc1nc(-c2cc(Cl)cc(Cl)c2Cl)oc1NCCOCCNCC(F)(F)F [Compound 94, 2-(2,3,5-Trichlorophenyl)-5-((2-(2-((2,2,2-trifluoroethyl)amino)ethoxy)ethyl)amino)oxazole-4-carbonitrile] | 300 | 77 | 
25 | CN(CCOCCNc1oc(-c2cc(Cl)cc(Cl)c2Cl)nc1C#N)c1ccccc1 [Compound 95, 5-((2-(2-(Methyl(phenyl)amino)ethoxy)ethyl)amino)-2-(2,3,5-trichlorophenyl)oxazole-4-carbonitrile] | 260 | 83 | 
26 | CN(CCF)CCOCCNc1oc(-c2cc(Cl)cc(Cl)c2Cl)nc1C#N [Compound 96, 5-((2-(2-((2-Fluoroethyl)(methyl)amino)ethoxy)ethyl)amino)-2-(2,3,5-trichlorophenyl)oxazole-4-carbonitrile] | 4400 | 93 | 
27 | N#Cc1nc(-c2cc(Cl)cc(Cl)c2Cl)oc1NCCOCCOc1ccncc1 [Compound 97, 5-((2-(2-(Pyridin-4-yloxy)ethoxy)ethyl)amino)-2-(2,3,5-trichlorophenyl)oxazole-4-carbonitrile] | 110 | 68 | 
28 | N#Cc1nc(-c2cc(Cl)cc(Cl)c2Cl)oc1NCCOCCN1CCC(F)(F)CC1 [Compound 98, 5-((2-(2-(4,4-Difluoropiperidin-1-yl)ethoxy)ethyl)amino)-2-(2,3,5-trichlorophenyl)oxazole-4-carbonitrile] | 3100 | 79 | 
29 | COc1cnccc1OCCOCCNc1oc(-c2cc(Cl)cc(Cl)c2Cl)nc1C#N [Compound 99, 5-((2-(2-((3-Methoxypyridin-4-yl)oxy)ethoxy)ethyl)amino)-2-(2,3,5-trichlorophenyl)oxazole-4-carbonitrile] | 1700 | 66 | 
30 | N#Cc1nc(-c2cc(Cl)cc(Cl)c2Cl)oc1NCCOCCOCCOc1ccncc1 [Compound 100, 5-((2-(2-(2-(Pyridin-4-yloxy)ethoxy)ethoxy)ethyl)amino)-2-(2,3,5-trichlorophenyl)oxazole-4-carbonitrile] | > 20000 |  | 
31 | COc1cc(OCCOCCNc2oc(-c3cc(Cl)cc(Cl)c3Cl)nc2C#N)ccn1 [Compound 101, 5-((2-(2-((2-Methoxypyridin-4-yl)oxy)ethoxy)ethyl)amino)-2-(2,3,5-trichlorophenyl)oxazole-4-carbonitrile] | 72 | 62 | 
32 | N#Cc1nc(-c2cc(Cl)cc(Cl)c2Cl)oc1NCCOCCOc1ccnc(F)c1 [Compound 102, 5-((2-(2-((2-Fluoropyridin-4-yl)oxy)ethoxy)ethyl)amino)-2-(2,3,5-trichlorophenyl)oxazole-4-carbonitrile] | 110 | 86 | 
33 | N#Cc1nc(-c2cc(Cl)cc(Cl)c2Cl)oc1NCCOCCOc1ccnnc1 [Compound 103, 5-((2-(2-(Pyridazin-4-yloxy)ethoxy)ethyl)amino)-2-(2,3,5-trichlorophenyl)oxazole-4-carbonitrile] | 4600 | 73 | 
